In patent publication US12398154B2, “Azaquinazoline pan-KRas inhibitors” (Mirati Therapeutics, Inc., priority 2020, dated 2025):

How the values were obtained:
[1] = test system: phospho-ERK in NCI-H727 (G12V) cells; experiment: Inhibition of KRas-mediated phosphorylation of ERK (in-cell western); type: cell-based; settings: Homo sapiens, NCI-H727, 3 h, 3 hours compound, phospho-ERK normalized to GAPDH
Protocol: (§1) Diluted compounds were then added in a final concentration of 0.5% DMSO. After 3 hours, 50 μL of 4.0% formaldehyde was added and the plates incubated at room temperature for 20 minutes. The plates were then dumped and permeabilized with 150 μL of ice cold 100% methanol for 10 minutes.
(§2) The amount of phospho-ERK was determined using an antibody specific for the phosphorylated form of ERK and compared to the amount of GAPDH. […] The plates were incubated overnight at 4° C. The plates were washed 3× with 150 uL PBS+0.1% Tween 20.
(§3) The plates were washed 3× with 150 uL PBS+0.1% Tween 20. Plates were imaged dry on a Li-COR Odyssey CLX plate reader.
(§4) The phospho-ERK (Thr202/Tyr204) signal was normalized to the GAPDH signal for each well and percent of DMSO control values were calculated. IC50 values were generated using a 4-parameter fit of the dose response curve.

[2] = test system: phospho-ERK in NCI-H460 (Q61H) cells; experiment: as above; type: cell-based; settings: Homo sapiens, NCI-H460, 3 h, 3 hours compound, phospho-ERK normalized to GAPDH
Protocol: as §1, §2, §3, §4

[3] = test system: phospho-ERK in AsPC-1 (G12D) cells; experiment: as above; type: cell-based; settings: Homo sapiens, ASPC1, 3 h, 3 hours compound, phospho-ERK normalized to GAPDH
Protocol: as §1, §2, §3, §4

[4] = molecular target: KRas G12D (Homo sapiens, UniProt P01116, G12D); experiment: biochemical;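 note: TR-FRET displacement binding assay on KRas, read after a one-hour incubation at room temperature, IC50 fitted from percent-of-control values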
Protocol: (§5) The ability of a compound to bind to KRas was measured using a TR-FRET displacement assay. […] After a 60-minute incubation at room temperature, the reaction was measured using a BMG LABTECH CLARIO star Plus via TR-FRET. […] The POC values were fit to a 4-parameter IC50 equation and the IC50 value reported.

[5] = test system: pERK in MKN1 cells; experiment: Inhibition of KRas phosphorylation of ERK (Cisbio HTRF pERK assay); settings: Homo sapiens, MKN-1, 3 h, read-out: Inhibition (HTRF IC50) of KRas-mediated Phosphorylation of ERK, MKN1
[6] = molecular target: KRas G12V (Homo sapiens, UniProt P01116, G12V); experiment: biochemical;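 note: KRas binding measured by TR-FRET displacement at room temperature, IC50 fitted from percent of control values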
Protocol: as §5

[7] = test system: pERK in PSN1 cells; experiment: Inhibition of KRas phosphorylation of ERK (Cisbio HTRF pERK assay); settings: Homo sapiens, PSN1, 3 h, read-out: Inhibition (HTRF IC50) of KRas-mediated Phosphorylation of ERK, PSN1
[8] = molecular target: KRas G12R (Homo sapiens, UniProt P01116, G12R); experiment: biochemical;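 note: TR-FRET displacement assay of compound binding to KRas, read after one hour at room temperature, potency from a four-parameter fit of percent-of-control values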
Protocol: as §5

[9] = molecular target: KRas G12A (Homo sapiens, UniProt P01116, G12A); experiment: biochemical;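 note: binding to KRas measured by TR-FRET displacement after one hour at room temperature, IC50 from a four-parameter fit of percent-of-control values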
Protocol: as §5

[10] = molecular target: KRas G12S (Homo sapiens, UniProt P01116, G12S); experiment: biochemical;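 note: TR-FRET displacement binding to KRas, read after one hour incubation at room temperature, IC50 from four-parameter fit of percent of control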
Protocol: as §5

[11] = molecular target: KRas WT (Homo sapiens, UniProt P01116); experiment: biochemical;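 note: binding to KRas read as TR-FRET displacement after a one-hour room-temperature incubation, IC50 derived from percent-of-control values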
Protocol: as §5

[12] = molecular target: KRas G12C (Homo sapiens, UniProt P01116, G12C); experiment: biochemical;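 note: binding to KRas assessed by TR-FRET displacement after one hour incubation at room temperature, potency fitted from percent-of-control values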
Sequence of KRas G12C (P01116 1-169 isoform P01116-2 G12C): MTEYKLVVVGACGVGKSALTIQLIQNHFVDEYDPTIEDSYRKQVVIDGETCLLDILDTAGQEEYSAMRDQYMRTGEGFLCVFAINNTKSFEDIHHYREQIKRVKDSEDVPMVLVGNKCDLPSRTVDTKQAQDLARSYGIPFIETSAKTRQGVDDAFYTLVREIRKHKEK
Protocol: as §5

Sequence of KRas G12D (P01116 1-169 isoform P01116-2 G12D): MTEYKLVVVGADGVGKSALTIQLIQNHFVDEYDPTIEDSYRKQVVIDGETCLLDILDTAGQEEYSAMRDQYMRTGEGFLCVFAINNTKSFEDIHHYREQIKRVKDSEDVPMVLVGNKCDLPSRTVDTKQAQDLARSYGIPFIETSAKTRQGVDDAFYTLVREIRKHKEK
Sequence of KRas G12R (P01116 1-169 isoform P01116-2 G12R): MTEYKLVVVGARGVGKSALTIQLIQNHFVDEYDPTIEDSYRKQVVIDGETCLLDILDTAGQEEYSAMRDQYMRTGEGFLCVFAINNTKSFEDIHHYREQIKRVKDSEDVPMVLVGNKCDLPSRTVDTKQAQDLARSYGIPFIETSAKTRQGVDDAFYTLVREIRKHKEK
Sequence of KRas G12V (P01116 1-169 isoform P01116-2 G12V): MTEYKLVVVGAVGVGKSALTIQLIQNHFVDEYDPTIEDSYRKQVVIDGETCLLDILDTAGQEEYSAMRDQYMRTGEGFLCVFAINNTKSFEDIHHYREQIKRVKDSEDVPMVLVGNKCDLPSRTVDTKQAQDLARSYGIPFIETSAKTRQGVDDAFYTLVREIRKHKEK
Sequence of KRas G12A (P01116 1-169 isoform P01116-2 G12A): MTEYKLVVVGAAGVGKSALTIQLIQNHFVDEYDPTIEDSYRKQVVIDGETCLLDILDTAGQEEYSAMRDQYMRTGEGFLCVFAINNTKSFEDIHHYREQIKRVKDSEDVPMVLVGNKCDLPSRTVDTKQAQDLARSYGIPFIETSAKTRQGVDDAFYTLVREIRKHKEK
Sequence of KRas G12S (P01116 1-169 isoform P01116-2 G12S): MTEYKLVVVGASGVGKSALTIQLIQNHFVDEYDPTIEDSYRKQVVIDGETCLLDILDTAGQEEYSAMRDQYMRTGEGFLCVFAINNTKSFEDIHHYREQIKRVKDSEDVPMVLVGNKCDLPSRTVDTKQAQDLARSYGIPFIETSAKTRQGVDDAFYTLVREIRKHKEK
Sequence of KRas WT (P01116 1-169 isoform P01116-2): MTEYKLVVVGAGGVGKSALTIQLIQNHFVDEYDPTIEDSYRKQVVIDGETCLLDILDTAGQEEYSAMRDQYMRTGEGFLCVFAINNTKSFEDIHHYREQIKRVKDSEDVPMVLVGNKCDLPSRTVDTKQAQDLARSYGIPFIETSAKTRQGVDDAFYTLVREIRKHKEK

| IC50 [4] | IC50 [5] | IC50 [6] | IC50 [7] | IC50 [8] | IC50 [9] | IC50 [10] | IC50 [11] | IC50 [12] | SMILES | IC50 [1] | IC50 [2] | IC50 [3] |
| --- | --- | --- | --- | --- | --- | --- | --- | --- | --- | --- | --- | --- |
| 12 nM | 38 nM | 5 nM | ≥ 10000 nM | 6 nM | – | – | – | – | CCc1c(F)ccc2cc(O)cc(-c3ncc4c(N5C[C@H](C)C[C@@H](O)C5)nc(OC[C@@]56CCCN5C[C@H](F)C6)nc4c3F)c12 [Example 187] | 550 nM | 133 nM | 470 nM |
| 48 nM | 77 nM | 19 nM | ≥ 10000 nM | 23 nM | – | – | – | – | CCc1c(F)ccc2cc(O)cc(-c3ncc4c(N5CC[C@H](C)[C@@H](O)C5)nc(OC[C@@]56CCCN5C[C@H](F)C6)nc4c3F)c12 [Example 188] | 2140 nM | 478 nM | 2070 nM |
| 32 nM | 29 nM | 18 nM | 5540 nM | 18 nM | – | – | – | – | CCc1c(F)ccc2cc(O)cc(-c3ncc4c(N5CC[C@@H](C)[C@@H](O)C5)nc(OC[C@@]56CCCN5C[C@H](F)C6)nc4c3F)c12 [Example 189] | 1430 nM | 377 nM | 1240 nM |
| 9 nM | 15 nM | 4 nM | 5850 nM | 4 nM | – | – | – | – | CCc1c(F)ccc2cc(O)cc(-c3ncc4c(N5CCC(F)(F)C(O)C5)nc(OC[C@@]56CCCN5C[C@H](F)C6)nc4c3F)c12 (stereo partly shown) [Example 191] | 714 nM | 230 nM | 665 nM |
| ≤ 2 nM | 4 nM | ≤ 2 nM | 7340 nM | ≤ 2 nM | – | – | – | – | CCc1c(F)ccc2cc(O)cc(-c3ncc4c(N5C[C@H](O)C[C@H](F)C5)nc(OC[C@@]56CCCN5C[C@H](F)C6)nc4c3F)c12 [Example 192] | 191 nM | 51 nM | 90 nM |
| 86 nM | 183 nM | 9 nM | ≥ 10000 nM | 8 nM | – | – | – | – | CCc1c(F)ccc2cc(O)cc(-c3ncc4c(NCCCc5cccnc5)nc(OC[C@@]56CCCN5C[C@H](F)C6)nc4c3F)c12 [Example 198, 5-ethyl-6-fluoro-4-(8-fluoro-2-(((2R,7aS)-2-fluorohexahydro-1H-pyrrolizin-7a-yl)methoxy)-4-((3-(pyridin-3-yl)propyl)amino)pyrido[4,3-d]pyrimidin-7-yl)naphthalen-2-ol] | 1750 nM | 803 nM | 2690 nM |
| 3 nM | 7 nM | ≤ 2 nM | ≥ 10000 nM | ≤ 2 nM | – | – | – | – | CCc1c(F)ccc2cc(O)cc(-c3ncc4c(NCc5ccc(=O)n(C)c5)nc(OC[C@@]56CCCN5C[C@H](F)C6)nc4c3F)c12 [Example 199] | 798 nM | 314 nM | 1320 nM |
| ≤ 2 nM | 35 nM | ≤ 2 nM | 3710 nM | ≤ 2 nM | – | – | – | – | NS(=O)(=O)CC1CCCN(c2nc(OC[C@@]34CCCN3C[C@H](F)C4)nc3c(F)c(-c4cc(O)cc5ccc(F)c(F)c45)ncc23)C1 (stereo partly shown) [Example 203] | 1270 nM | 758 nM | 8010 nM |
| ≤ 2 nM | 34 nM | ≤ 2 nM | ≥ 10000 nM | ≤ 2 nM | – | – | – | – | CCc1c(F)ccc2cc(O)cc(-c3ncc4c(N5CCC[C@]6(CNC(=O)C6)C5)nc(OC[C@]56CCCN5C[C@@H](O)C6)nc4c3F)c12 [Example 206] | 3330 nM | 3380 nM | 6960 nM |
| 54 nM | 154 nM | ≤ 2 nM | ≥ 10000 nM | 9 nM | – | – | – | – | CCc1c(F)ccc2cc(O)cc(-c3ncc4c(Nc5cnn(-c6ccncc6)c5)nc(OC[C@@]56CCCN5C[C@H](F)C6)nc4c3F)c12 [Example 297, 5-ethyl-6-fluoro-4-(8-fluoro-2-(((2R,7aS)-2-fluorohexahydro-1H-pyrrolizin-7a-yl)methoxy)-4-((1-(pyridin-4-yl)-1H-pyrazol-4-yl)amino)pyrido[4,3-d]pyrimidin-7-yl)naphthalen-2-ol] | 450 nM | 660 nM | 3430 nM |
| ≤ 2 nM | 358 nM | ≤ 2 nM | ≥ 10000 nM | ≤ 2 nM | – | – | – | – | CCc1c(F)ccc2cc(O)cc(-c3ncc4c(N5CCC[C@@](C)(O)C5)nc(OC[C@]56CCCN5[C@@H](CO)CC6)nc4c3F)c12 [Example 303, (R)-1-(7-(8-ethyl-7-fluoro-3-hydroxynaphthalen-1-yl)-8-fluoro-2-(((3R,7aR)-3-(hydroxymethyl)hexahydro-1H-pyrrolizin-7a-yl)methoxy)pyrido[4,3-d]pyrimidin-4-yl)-3-methylpiperidin-3-ol] | 3690 nM | 4120 nM | 3290 nM |
| ≤ 2 nM | 29 nM | ≤ 2 nM | ≥ 10000 nM | ≤ 2 nM | – | – | – | – | CCc1c(F)ccc2cc(O)cc(-c3ncc4c(N5CCC[C@@](C)(O)C5)nc(OC[C@@]56CCCN5[C@H](CO)CC6)nc4c3F)c12 [Example 304, (R)-1-(7-(8-ethyl-7-fluoro-3-hydroxynaphthalen-1-yl)-8-fluoro-2-(((3S,7aS)-3-(hydroxymethyl)hexahydro-1H-pyrrolizin-7a-yl)methoxy)pyrido[4,3-d]pyrimidin-4-yl)-3-methylpiperidin-3-ol] | 2580 nM | 804 nM | 1370 nM |
| ≤ 2 nM | 15 nM | ≤ 2 nM | ≥ 10000 nM | ≤ 2 nM | – | – | – | – | CCc1c(F)ccc2cc(O)cc(-c3ncc4c(N5CCC[C@@](C)(O)C5)nc(OC[C@@]56CCCN5C[C@H](O)C6)nc4c3F)c12 [Example 311, (2R,7aS)-7a-(((7-(8-ethyl-7-fluoro-3-hydroxynaphthalen-1-yl)-8-fluoro-4-((R)-3-hydroxy-3-methylpiperidin-1-yl)pyrido[4,3-d]pyrimidin-2-yl)oxy)methyl)hexahydro-1H-pyrrolizin-2-ol] | 2600 nM | 501 nM | 738 nM |
| 4 nM | 8200 nM | ≤ 2 nM | ≥ 10000 nM | ≤ 2 nM | – | – | – | – | O=C1NCC2(CCCN(c3nc(OC[C@@]45CCCN4C[C@H](F)C5)nc4c(F)c(-c5cc(O)cc6ccc(F)c(F)c56)ncc34)C2)N1 (stereo partly drawn) [Example 445, 7-(7-(7,8-difluoro-3-hydroxynaphthalen-1-yl)-8-fluoro-2-(((2R,7aS)-2-fluorohexahydro-1H-pyrrolizin-7a-yl)methoxy)pyrido[4,3-d]pyrimidin-4-yl)-1,3,7-triazaspiro[4.5]decan-2-one] | 2930 nM | 1190 nM | 1620 nM |
| 4 nM | 786 nM | ≤ 2 nM | ≥ 10000 nM | 4 nM | – | – | – | – | O=C1CC2(CCCN(c3nc(OC[C@@]45CCCN4C[C@H](F)C5)nc4c(F)c(-c5cc(O)cc6ccc(F)c(F)c56)ncc34)C2)CN1 (stereo partly drawn) [Example 446, 7-(7-(7,8-difluoro-3-hydroxynaphthalen-1-yl)-8-fluoro-2-(((2R,7aS)-2-fluorohexahydro-1H-pyrrolizin-7a-yl)methoxy)pyrido[4,3-d]pyrimidin-4-yl)-2,7-diazaspiro[4.5]decan-3-one] | 2500 nM | 2190 nM | 3670 nM |
| 537 nM | – | 766 nM | – | 1010 nM | 815 nM | 821 nM | 688 nM | 822 nM | Cc1cc(N)nc(-c2ncc3c(N4CCCC(C)(O)C4)nc(OC[C@@]45CCCN4C[C@H](F)C5)nc3c2F)c1C(F)(F)F (stereo partly drawn) [Example 459, 1-(7-(6-amino-4-methyl-3-(trifluoromethyl)pyridin-2-yl)-8-fluoro-2-(((2R,7aS)-2-fluorohexahydro-1H-pyrrolizin-7a-yl)methoxy)pyrido[4,3-d]pyrimidin-4-yl)-3-methylpiperidin-3-ol] | ≥ 10000 nM | ≥ 10000 nM | 9940 nM |
